Assay results as given in article PMC8510812, “Studies on the Incompatibility between Bulbus fritillariae and Radix aconiti praeparata Based on the P-gp” (Evidence-based Complementary and Alternative Medicine : eCAM, 2021).
Read-outs that look alike come from different tables or passages of the source.

Columns and labels:
ileum = assay: Rat SPIP, Peff of monoester alkaloids in Radix aconiti praeparata extract with or without Bulbus fritillariae; type: in vivo; conditions: n = 6, Figure 3
Protocol: (§1) Rats were anaesthetized by an intraperitoneal injection of urethane and then placed on a heated pad. The small intestine was exposed by surgery. 10 cm of the ileum segment was ligated and cannulated with glass tubing for perfusion. Caroline et al. reported that the level of P-gp expression in rat ileum was the highest. In order to better reflect the characteristics of P-gp, we selected the ileum segment. The cannulated segment was rinsed with saline (37°C), and attached to the perfusion assembly consisted of a syringe pump and a 50 ml syringe. The selected ileum was placed as “U” shape and covered with the gauze wet by saline. The perfusate was collected every 10 min at a flow rate of 0.2 ml/min for 90 min. The perfused intestine segment was removed and opened along the mesentery to measure the area. Samples were frozen immediately and stored at -20°C until analysis. Digoxin, an exclusive substrate of P-gp, was chosen as the FDA guidelines.
The concentrations of drugs in SPIP experiment were determined by HPLC. A MS-C18 column (5 μm, 4.6 mm × 150 mm, Agilent, USA) with an analytical TC-C18 guard column (5 μm, 4.6 mm × 12.5 mm, Agilent, USA) was maintained at 30°C. The analytical mobile phase about digoxin consisted of water and acetonitrile in a 75 : 25 (v/v) ratio. Benzoylaconine, benzoylmesaconine, and benzoylhypacoitine consisted of 0.05% acetic acid and methanol in a gradient from 85 : 15 to 55 : 45 (v/v) ratio. The flow rate was 1 mL/min. The injection volume was 10 µL. Digoxin was detected by absorbance at 220 nm and benzoylaconine, benzoylmesaconine, and benzoylhypacoitine at 235 nm.
P eff was calculated by the following equation:(1) Peff=−QinlnCoutQout/CinQin/2πrL. Here, Qin and Qout were the flow rate at inlet and outlet, respectively. Cin and Cout were the concentration at inlet and outlet, respectively. 2πrL was the mass transfer surface area within the intestinal segment, which was assumed to be the area of the cylinder with the radius (r) and length (L).

P-gp [1] = type: in vivo, rat; conditions: in the presence of verapamil, n = 6, Figure 10
Protocol: as §1
The concentrations of drugs in SPIP experiment were determined by HPLC. A MS-C18 column (5 μm, 4.6 mm × 150 mm, Agilent, USA) with an analytical TC-C18 guard column (5 μm, 4.6 mm × 12.5 mm, Agilent, USA) was maintained at 30°C. […] Digoxin was detected by absorbance at 220 nm and benzoylaconine, benzoylmesaconine, and benzoylhypacoitine at 235 nm.
P eff was calculated by the following equation:(1) Peff=−QinlnCoutQout/CinQin/2πrL. […]

P-gp [2] = molecular target: T1, P-gp (Homo sapiens, UniProt P08183); type: cell-based; conditions: MDR1-MDCK cells, n = 3
T1 construct: host or cells: MDR1-MDCK cells
T1 sequence (P08183 whole entry): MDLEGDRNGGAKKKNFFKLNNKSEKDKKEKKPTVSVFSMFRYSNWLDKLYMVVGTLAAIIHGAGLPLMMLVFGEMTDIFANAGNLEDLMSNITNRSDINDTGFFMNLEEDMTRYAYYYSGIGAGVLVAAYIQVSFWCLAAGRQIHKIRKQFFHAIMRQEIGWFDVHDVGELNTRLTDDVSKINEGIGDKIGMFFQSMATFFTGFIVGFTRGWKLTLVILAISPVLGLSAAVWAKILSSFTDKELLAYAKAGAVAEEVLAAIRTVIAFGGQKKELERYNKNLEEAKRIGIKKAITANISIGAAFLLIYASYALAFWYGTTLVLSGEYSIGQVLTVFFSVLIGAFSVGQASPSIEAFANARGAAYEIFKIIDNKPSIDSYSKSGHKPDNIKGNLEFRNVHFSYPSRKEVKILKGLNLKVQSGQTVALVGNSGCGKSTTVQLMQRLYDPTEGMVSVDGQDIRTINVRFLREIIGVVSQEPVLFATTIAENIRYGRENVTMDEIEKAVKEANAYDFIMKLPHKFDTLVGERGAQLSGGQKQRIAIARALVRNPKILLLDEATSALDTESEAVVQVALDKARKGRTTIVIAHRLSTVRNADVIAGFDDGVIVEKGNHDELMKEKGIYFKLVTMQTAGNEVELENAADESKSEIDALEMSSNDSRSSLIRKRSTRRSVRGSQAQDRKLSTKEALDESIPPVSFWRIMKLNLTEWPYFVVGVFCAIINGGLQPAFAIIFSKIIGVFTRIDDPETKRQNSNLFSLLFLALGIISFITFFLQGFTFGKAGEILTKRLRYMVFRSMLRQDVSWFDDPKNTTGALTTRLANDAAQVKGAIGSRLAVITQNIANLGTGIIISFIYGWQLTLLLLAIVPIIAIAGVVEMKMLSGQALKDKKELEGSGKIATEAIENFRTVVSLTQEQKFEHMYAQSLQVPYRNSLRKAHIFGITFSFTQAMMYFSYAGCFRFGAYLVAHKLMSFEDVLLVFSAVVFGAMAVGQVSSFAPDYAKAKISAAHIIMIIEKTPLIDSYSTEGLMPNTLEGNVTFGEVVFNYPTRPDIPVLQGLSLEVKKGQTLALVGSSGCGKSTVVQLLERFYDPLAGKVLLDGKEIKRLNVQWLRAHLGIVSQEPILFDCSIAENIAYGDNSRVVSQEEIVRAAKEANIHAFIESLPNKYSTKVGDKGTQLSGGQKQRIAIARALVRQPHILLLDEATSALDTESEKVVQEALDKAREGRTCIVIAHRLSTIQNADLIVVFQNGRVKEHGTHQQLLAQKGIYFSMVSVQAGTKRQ
Protocol: MDR1-MDCK cells, obtained from the College of Pharmaceutical Sciences in Zhejiang University (China), were cultured in DMEM containing 10% FBS, 100 µg/mL-100 U/mL penicillin-streptomycin, and 1% NEAA at 37°C in an atmosphere of 5% CO2 and 95% relative humidity. Cells were passaged at 80%–90% conﬂuence. P-gp inhibitors were screened by MDR1-MDCK cell transport study using the calcein-AM kit. Briefly, the cells were seeded in a 96-well black opaque plate and cultured for 48 h. Then, the cells were washed twice with PBS. 100 µL drug and 50 µL culture medium was added and preincubated at 37°C for 10 min. 50 µL 1 µM calcein-AM was added and incubated at 37°C for 1 h. Cold PBS was used to terminate the reaction. 100 µL 0.1% Triton-100 was added for cell permeability.
RFR was calculated by (4) RFR=RFU TS/RFU CS×100%. Here, RFU TS was the RFU of the test sample and RFU CS was the RFU of the control sample.

Compound	Peff of monoester alkaloid in Radix aconiti praeparata extract versus Radix aconiti praeparata + Bulbus fritillariae cirrhosae extract (ileum)	Peff of monoester alkaloid in Radix aconiti praeparata extract versus Radix aconiti praeparata + Bulbus fritillariae thunbergii extract (ileum)	Peff of monoester alkaloid in Radix aconiti praeparata extract versus that supplemented with verapamil (P-gp [1])	RFR of calcein versus control group (P-gp [2]; high-dose group)	RFR of calcein versus control group (P-gp [2]; low-dose group)
CCN1C[C@]2(COC)[C@H](O)C[C@H](OC)[C@@]34[C@@H]5C[C@@]6(O)[C@H](OC(=O)c7ccccc7)[C@@H]5[C@@](O)([C@@H]([C@H](OC)[C@H]23)[C@@H]14)[C@@H](O)[C@@H]6OC [Benzoylaconine]	No significant differences	No significant differences	No significant differences	–	–
COC[C@@]12CC[C@H](OC)[C@]34C([C@H]([C@H](OC)[C@H]13)[C@]1(O)[C@H]3[C@@H](OC(=O)c5ccccc5)[C@](O)(C[C@H]34)[C@@H](OC)[C@@H]1O)N(C)C2 [Benzoylhypacoitine]	No significant differences	No significant differences	No significant differences	–	–
COC[C@]12CN(C)C3[C@@H]4[C@H](OC)[C@H]1[C@@]3([C@@H](OC)C[C@H]2O)[C@@H]1C[C@@]2(O)[C@H](OC(=O)c3ccccc3)[C@@H]1[C@]4(O)[C@@H](O)[C@@H]2OC [Benzoylmesaconine]	significant differences	–	–	–	–
C[C@H]1CC[C@@H]2N(C1)C[C@H]1[C@@H]3C[C@H]4[C@@H](C[C@H](O)[C@H]5C[C@@H](O)CC[C@@]54C)[C@@H]3CC[C@@H]1[C@]2(C)O [Peimine]	–	–	–	highly significant differences	no significant differences
C[C@H]1CCC2N(C1)C[C@H]1C3CC4[C@@H](CC(=O)C5C[C@@H](O)CC[C@@]54C)C3CCC1[C@]2(C)O (stereo partly shown) [Peiminine]	–	–	–	no significant differences	no significant differences
CC1=C2C[C@H]3[C@@H](CC(=O)[C@H]4C[C@@H](O)CC[C@@]43C)[C@@H]2CC[C@]12O[C@@H]1C[C@H](C)CN[C@H]1[C@H]2C [Peimisine]	–	–	–	highly significant differences	highly significant differences
